What was measured:
[1] = Chronic toxicity, rectal suppositories: indexes of peripheral blood; details: male rats; for Basophiles / Juveniles: 1 month/2 months (one value given)
Protocol: (§1) The experiments were conducted on inbred rats. The experimental animals were selected in groups by a method of random sampling taking into account the body mass as a determining index; 24 males or 24 females for one preparation from compounds 2, 15, 23, 34, 37 investigated in one dose.
(§2) Two doses of preparations used in the experiments: 50 mg/kg and 500 mg/kg. Before the administration, the suppositories were softened by heating in a glass water bath at a temperature of 38-39° C., the soft mass was collected in tuberculin syringe in a volume of 1 ml, a needle with oliva was attached to the syringe, and the preparatory mass was introduced into the rectum of the animal for a depth of 1.5-2.0 cm. The animals of the control group were administered with sterile medical liquid paraffin in a volume corresponding to the volume of the investigated suppository. A complete course of administration of drugs to the animals was two months. A complex of laboratory diagnostic investigations was carried out one month after the beginning of the administration of the preparation to the animal—in a middle of the course (8 animals), two months after ending the course (8 animals) and three months after ending the recovery period of one month (8 animals). The mass of the body of the rats in the first month of administration of the preparation was determined weekly, and then once in two weeks. On the basis of the dynamics of an index of the mass of the animal body, the volume of preparation being administered was corrected taking into account the test dose.

[2] = Chronic toxicity, rectal suppositories: indexes of urine; details: rats, 1 month after the administration
Protocol: as §1, §2

[3] = suppositories 50 mg/kg, 1 month
[4] = suppositories 50 mg/kg, 2 months
[5] = suppositories 500 mg/kg, 1 month
[6] = suppositories 500 mg/kg, 2 months

What does the source list for `Nc1ccnc2c(=O)n([C@@H]3O[C@H](CO)[C@@H](O)[C@H]3O)[nH]c(=O)c12` [Compound 2, 4-amino-7-(β-D-ribofuranosile)pyrido[2,3-d]-6H-pyridazine-5,8-dione]?
Average volume of erythrocytes [1, 3]: 83.4 ± 1.4 Mkm^3; Coagulation, time [1, 3]: 145 ± 16 s; Eosinophiles [1, 3]: 3.4 ± 0.6%; Erythrocytes [1, 3]: 5.60 ± 2 mln/mm^3; Haematocrite [1, 3]: 47.8 ± 1.3%; Hemoglobin [1, 3]: 10.5 ± 0.1 mmol/L; Leukocyte [1, 3]: 16.0 ± 1.4 thousand/mm^3; REE [1, 3]: 1.9 ± 0.3 mm/h; Reticulocytes [1, 3]: 2.8 ± 0.2/2.8 ± 0.2%; Stab neutrophil [1, 3]: 0.8 ± 0.3%; Thrombocytes [1, 3]: 659 ± 26; Basophiles ([1]; suppositories 50 mg/kg): 0%; Juveniles ([1]; suppositories 50 mg/kg): 0%; Average volume of erythrocytes [1, 4]: 77.9 ± 2.1 Mkm^3; Coagulation, time [1, 4]: 322 ± 18 s; Eosinophiles [1, 4]: 4.2 ± 0.8%; Erythrocytes [1, 4]: 6.1 ± 0.1 mln/mm^3; Haematocrite [1, 4]: 47.9 ± 1.5%; Hemoglobin [1, 4]: 11.1 ± 0.1 mmol/L; Leukocyte [1, 4]: 19.3 ± 1.6 thousand/mm^3; REE [1, 4]: 1.7 ± 0.1 mm/h; Reticulocytes [1, 4]: 2.8 ± 0.2/2.8 ± 0.2%; Stab neutrophil [1, 4]: 1.7 ± 0.3%; Thrombocytes [1, 4]: 566 ± 20; Average volume of erythrocytes [1, 5]: 85.2 ± 1.2 Mkm^3; Coagulation, time [1, 5]: 149 ± 11 s; Eosinophiles [1, 5]: 3.2 ± 0.9%; Erythrocytes [1, 5]: 5.6 ± 0.1 mln/mm^3; Haematocrite [1, 5]: 47.5 ± 1.6%; Hemoglobin [1, 5]: 10.6 ± 0.1 mmol/L; Leukocyte [1, 5]: 15.6 ± 0.8 thousand/mm^3; REE [1, 5]: 2.1 ± 0.3 mm/h; Reticulocytes [1, 5]: 2.9 ± 0.3%; Stab neutrophil [1, 5]: 0.9 ± 0.2%; Thrombocytes [1, 5]: 681 ± 26; Basophiles ([1]; suppositories 500 mg/kg): 0%; Juveniles ([1]; suppositories 500 mg/kg): 0%; Average volume of erythrocytes [1, 6]: 72.0 ± 2.5 Mkm^3; Coagulation, time [1, 6]: 305 ± 13 s; Eosinophiles [1, 6]: 4.8 ± 1.6%; Erythrocytes [1, 6]: 6.5 ± 0.1 mln/mm^3; Haematocrite [1, 6]: 50.3 ± 2.0%; Hemoglobin [1, 6]: 12.3 ± 0.3 mmol/L; Leukocyte [1, 6]: 18.6 ± 1.9 thousand/mm^3; REE [1, 6]: 1.9 ± 0.1 mm/h; Reticulocytes [1, 6]: 3.5 ± 0.2%; Stab neutrophil [1, 6]: 1.1 ± 0.3%; Thrombocytes [1, 6]: 583 ± 25; Bilirubin (index of urine) ([2]; dose 50 mg/kg): <5 Mkmol/l; Glucose (index of urine) ([2]; dose 50 mg/kg): <5 mmol/L; Ketone bodies (index of urine) ([2]; dose 50 mg/kg): <1 mmol/L; Potassium (index of urine) ([2]; dose 50 mg/kg): 5.78 ± 1.7 g/L; Protein (index of urine) ([2]; dose 50 mg/kg): 0.69 ± 0.33 g/L; Sodium (index of urine) ([2]; dose 50 mg/kg): 1.7 ± 0.3 g/L; Urea (index of urine) ([2]; dose 50 mg/kg): 457 ± 144 mmol/L; Urobilinogen (index of urine) ([2]; dose 50 mg/kg): <16 Mkmol/l; pH (index of urine) ([2]; dose 50 mg/kg): 6.1 ± 0.3; Bilirubin (index of urine) ([2]; dose 500 mg/kg): <5 Mkmol/l; Glucose (index of urine) ([2]; dose 500 mg/kg): <5 mmol/L; Ketone bodies (index of urine) ([2]; dose 500 mg/kg): <1 mmol/L; Potassium (index of urine) ([2]; dose 500 mg/kg): 6.24 ± 1.8 g/L; Protein (index of urine) ([2]; dose 500 mg/kg): 0.76 ± 0.31 g/L; Sodium (index of urine) ([2]; dose 500 mg/kg): 1.27 ± 0.3 g/L; Urea (index of urine) ([2]; dose 500 mg/kg): 492 ± 187 mmol/L; Urobilinogen (index of urine) ([2]; dose 500 mg/kg): <16 Mkmol/l; pH (index of urine) ([2]; dose 500 mg/kg): 6.2 ± 0.2
